# Measurements as given in patent US9067888B2, “Inhibitors of protein kinases” (Ingenium Pharmaceuticals GmbH, priority 2010, dated 2015).
# What was measured:
# [1] = system: TNF-alpha inducible reporter gene; test: Inhibition of TNF-alpha-induced reporter gene expression (luciferase) in HeLa-derived cell line; assay type: cell-based, human; details: remaining luciferase activity in presence of 3 μM of compound as ratio of DMSO-treated cells, TNF-alpha 50 ng/ml; for activity at 3 µM: Homo sapiens, 6 h, read-out: Efficacy (ratio to DMSO) TNF-alpha induced response; for Efficacy (ratio to DMSO) TNF-alpha induced response: 6 hours
# Text: TNF-alpha responsive cell lines like the human HeLa cell line can be used to study cellular responses to TNF-alpha, e.g. transcriptional regulation of a transfected TNF-alpha responsive reporter gene, and effects of kinase inhibitors on this response.
# In order to analyse compound effects on TNF-alpha mediated transcriptional response, a HeLa-derived cell line stably transfected with a TNF-alpha inducible reporter gene was used (Panomics Catalog No. RC0013). The cell line was obtained by co-transfection of a luciferase reporter gene (Panomics P/N LR0051) and pHyg into human cervical epithelial HeLa cells, followed by hygromycin selection. TNFα-induced luciferase activity was used to select clones from the hygromycin-resistant cells. The cell line was maintained and stimulated according to the manufacturer's instructions. Briefly, cells were seeded at 5×10^5/well in 1 ml of growth medium in a 12-well plate and incubated in a humidified incubator at 37° C. and 5% CO2 for 24 hours. Medium was replaced with 1 ml of serum free medium and compounds were added up to concentrations of […]. After 1 hour of incubation, TNF-alpha was added to achieve a final concentration of 50 ng/ml. The culture dish was further incubated in a humidified incubator at 37° C. and 5% CO2 for 6 hours, medium was removed and 100 μL of lysis buffer were added to each well and the assay for luciferase activity was performed according to assay manufacturer's (Promega P/N E1500) recommendations. For more information about this cell line, go to worldwide website www(dot)panomics.com.
# Compound effects on TNF-alpha-induced reporter gene expression is shown in column 6 in Table 1 given below. Indicated is the remaining luciferase activity after incubation in presence of 3 μM of compound as a ratio of the activity of DMSO-treated cells without compound. Specifically, it was intended to distinguish cell permeable compounds from other compounds having significant inhibitory potency with regard to other CDKs, but fail to penetrate cells or are unstable under the conditions of the experiment.
# CDK9 = CDK9 (Homo sapiens (Human), UniProt P50750); test: In vitro kinase inhibition, KinaseProfiler service of Millipore, residual activity; assay type: biochemical; details: for remaining activity at 0.01 µM / CDK9 10 nM (RA in %): residual activity at 10 nM compound; for remaining activity at 0.01 µM: read-out: CDK9 10 nM (RA in %); for remaining activity at 0.1 µM / CDK9 100 nM (RA in %): residual activity at 100 nM compound; for remaining activity at 0.1 µM: read-out: CDK9 100 nM (RA in %)
# Sequence of CDK9 (P50750 whole entry): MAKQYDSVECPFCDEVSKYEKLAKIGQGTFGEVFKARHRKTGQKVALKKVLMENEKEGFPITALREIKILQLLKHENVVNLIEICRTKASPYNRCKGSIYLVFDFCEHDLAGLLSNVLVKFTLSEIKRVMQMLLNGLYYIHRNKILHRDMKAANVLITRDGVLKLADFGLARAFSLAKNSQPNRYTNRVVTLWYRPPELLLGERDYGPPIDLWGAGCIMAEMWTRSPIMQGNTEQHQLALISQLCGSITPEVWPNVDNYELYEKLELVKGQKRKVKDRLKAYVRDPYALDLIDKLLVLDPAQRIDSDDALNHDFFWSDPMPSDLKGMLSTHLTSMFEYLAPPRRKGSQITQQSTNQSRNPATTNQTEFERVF
# Sequence of CDK9 (O60563 whole entry partner): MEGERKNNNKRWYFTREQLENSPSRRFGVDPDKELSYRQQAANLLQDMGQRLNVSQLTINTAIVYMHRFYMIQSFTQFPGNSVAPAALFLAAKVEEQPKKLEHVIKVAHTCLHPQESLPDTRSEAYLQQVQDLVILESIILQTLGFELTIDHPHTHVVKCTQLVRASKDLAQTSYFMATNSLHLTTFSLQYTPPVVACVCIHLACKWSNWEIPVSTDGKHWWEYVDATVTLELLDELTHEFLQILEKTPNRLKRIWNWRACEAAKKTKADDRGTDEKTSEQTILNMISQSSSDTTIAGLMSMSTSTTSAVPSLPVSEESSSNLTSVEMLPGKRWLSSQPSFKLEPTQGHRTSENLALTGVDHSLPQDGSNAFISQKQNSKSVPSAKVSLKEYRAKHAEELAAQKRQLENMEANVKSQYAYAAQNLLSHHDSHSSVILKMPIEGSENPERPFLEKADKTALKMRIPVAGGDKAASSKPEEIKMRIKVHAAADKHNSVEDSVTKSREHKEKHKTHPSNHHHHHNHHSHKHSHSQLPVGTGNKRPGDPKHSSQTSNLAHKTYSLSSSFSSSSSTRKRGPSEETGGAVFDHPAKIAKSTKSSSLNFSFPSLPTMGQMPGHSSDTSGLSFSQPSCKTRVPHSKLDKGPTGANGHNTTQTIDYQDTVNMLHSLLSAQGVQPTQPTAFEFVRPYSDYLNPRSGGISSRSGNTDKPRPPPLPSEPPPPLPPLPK
# Text: In vitro kinase assay analysis may be performed using standard techniques described in the art. These techniques are also used by commercial services providers in order to offer in vitro kinase activity assay services, e.g. the assays offered by Millipore Inc. (worldwide website www(dot)millipore.com), ProQinase GmbH (worldwide website www(dot)proqinase.de) and others.
# In vitro kinase inhibition results shown in columns 7 to 9 in Table 1 were obtained by employing the KinaseProfiler™ service of Millipore and used to select compounds displaying specificity for CDK9. Specifically, it was intended to distinguish the CDK9-specific compounds from other compounds having significant inhibitory potency also with regard to other CDKs.
SMILES,activity at 3 µM [1] [%],remaining activity at 0.01 µM (CDK9) [%],remaining activity at 0.1 µM (CDK9) [%],Efficacy (ratio to DMSO) TNF-alpha induced response [1],CDK9 100 nM (RA in %) (CDK9) [%],CDK9 10 nM (RA in %) (CDK9) [%]
"COc1cc(F)ccc1-c1ccnc(NC(=O)[C@@H]2CC[C@H](NC(C)=O)C2)c1 [Example 34, (1R,3S)-3-Acetamido-N-(4-(4-fluoro-2-methoxyphenyl)pyridin-2-yl)cyclopentanecarboxamide]",7,50,8,–,–,–
"COc1cc(F)ccc1-c1ccnc(NC(=O)[C@H]2CC[C@@H](Nc3nccs3)CC2)c1 [Example 35, cis-N-(4-(4-Fluoro-2-methoxyphenyl)pyridin-2-yl)-4-(thiazol-2-ylamino)-cyclohexanecarboxamide]",2,36,4,–,–,–
"COc1cc(F)ccc1-c1ccnc(NC(=O)C(C)c2ccncc2)c1 (stereo not drawn) [Example 15, N-(4-(4-Fluoro-2-methoxyphenyl)pyridin-2-yl)-2-(pyridin-4-yl)propanamide]",–,84,–,0.83,64,–
"COc1cc(F)ccc1-c1ccnc(NC(=O)Cc2ccccc2)c1 [Example 7, N-(4-(4-Fluoro-2-methoxyphenyl)pyridin-2-yl)-2-phenylacetamide]",8,78,17,–,–,–
"COc1cc(F)ccc1-c1ccnc(NC(=O)[C@@H]2CC[C@H](Nc3ccccc3)C2)c1 [Example 39, (1R,3S)—N-(4-(4-Fluoro-2-methoxyphenyl)pyridin-2-yl)-3-(phenylamino)-cyclopentanecarboxamide]",5,60,6,–,–,–
"COc1cc(F)ccc1-c1ccnc(NC(=O)CC(C)c2cccnc2)c1 (stereo not drawn) [Example 23, N-(4-(4-Fluoro-2-methoxyphenyl)pyridin-2-yl)-3-(pyridin-3-yl)butanamide]",89,95,35,–,–,–
"COc1cc(F)ccc1-c1ccnc(NC(=O)Cc2ccnc(N3CCN(C)CC3)c2)c1 [Example 31, N-(4-(4-Fluoro-2-methoxyphenyl)pyridin-2-yl)-2-(2-(4-methylpiperazin-1-yl)pyridin-4-yl)acetamide]",4,58,8,–,–,–
"COc1cc(F)ccc1-c1ccnc(NC(=O)[C@@H](C)c2cccnc2)c1 (stereo in doubt) [Example 12, N-(4-(4-Fluoro-2-methoxyphenyl)pyridin-2-yl)-2-(pyridin-3-yl)propanamide]",83,94,96,–,–,–
"COc1cc(F)ccc1-c1ccnc(NC(=O)CC2CCCCC2)c1 [Example 2, 2-Cyclohexyl-N-(4-(4-fluoro-2-methoxyphenyl)pyridin-2-yl)acetamide]",49,78,33,–,–,–
"COc1cc(F)ccc1-c1ccnc(NC(=O)[C@@H]2CCC[C@H](NC(C)=O)C2)c1 [Example 40, (1R,3S)-3-Acetamido-N-(4-(4-fluoro-2-methoxyphenyl)pyridin-2-yl)cyclohexanecarboxamide]",46,89,38,–,–,–
"COc1cc(F)ccc1-c1ccnc(NC(=O)CC(C)c2ccc(N3CCN(C)CC3)cc2)c1 (stereo not drawn) [Example 29, N-(4-(4-Fluoro-2-methoxyphenyl)pyridin-2-yl)-3-(4-(4-methylpiperazin-1-yl)phenyl)butanamide]",105,95,39,–,–,–
"COc1cc(F)ccc1-c1ccnc(NC(=O)C(C)c2ccncc2)c1 (stereo not drawn) [Example 16, N-(4-(4-Fluoro-2-methoxyphenyl)pyridin-2-yl)-2-(pyridin-4-yl)propanamide]",–,–,–,0.04,7,65
"COc1ccc(F)cc1-c1ccnc(NC(=O)C(C)c2cccs2)c1 (stereo not drawn) [Example 17, N-(4-(5-Fluoro-2-methoxyphenyl)pyridin-2-yl)-2-(thiophen-2-yl)propanamide]",–,–,–,0.88,97,114
"COc1cc(F)ccc1-c1ccnc(NC(=O)Cc2ccc(N3CCN(C)CC3)cc2)c1 [Example 20, N-(4-(4-Fluoro-2-methoxyphenyl)pyridin-2-yl)-2-(4-(4-methylpiperazin-1-yl)phenyl)acetamide]",8,39,5,–,–,–
"COc1ccc([C@H](C)C(=O)Nc2cc(-c3ccc(F)cc3OC)ccn2)cc1 [Example 11, (2S)—N-(4-(4-Fluoro-2-methoxyphenyl)pyridin-2-yl)-2-(4-methoxyphenyl)-propanamide]",7,36,6,–,–,–
"COc1cc(F)ccc1-c1ccnc(NC(=O)[C@H]2CC[C@@H](Nc3ccccn3)CC2)c1 [Example 30, N-(4-(4-Fluoro-2-methoxyphenyl)pyridin-2-yl)-4-(pyridin-2-ylamino)-cis-cyclohexanecarboxamide]",3,29,4,–,–,–
"COc1cc(F)ccc1-c1ccnc(NC(=O)C2CCNCC2)c1 [Example 3, N-(4-(4-Fluoro-2-methoxyphenyl)pyridin-2-yl)piperidine-4-carboxamide]",5,86,9,–,–,–
"COc1ccc(F)cc1-c1ccnc(NC(=O)C(C)c2cccs2)c1 (stereo not drawn) [Example 18, N-(4-(5-Fluoro-2-methoxyphenyl)pyridin-2-yl)-2-(thiophen-2-yl)propanamide]",–,–,–,0.07,5,32
"COc1cc(F)ccc1-c1ccnc(NC(=O)C2CCCCC2)c1 [Example 1, N-(4-(4-Fluoro-2-methoxyphenyl)pyridin-2-yl)cyclohexanecarboxamide]",23,88,23,–,–,–
"COc1cc(F)ccc1-c1ccnc(NC(=O)[C@H]2CC[C@@H](Nc3ccccc3)CC2)c1 [Example 36, cis-N-(4-(4-Fluoro-2-methoxyphenyl)pyridin-2-yl)-4-(phenylamino)-cyclohexanecarboxamide]",26,59,12,–,–,–
"COc1cc(F)ccc1-c1ccnc(NC(=O)Cc2ccncc2)c1 [Example 8, N-(4-(4-Fluoro-2-methoxyphenyl)pyridin-2-yl)-2-(pyridin-4-yl)acetamide]",4,93,7,–,–,–
"COc1ccc(F)cc1-c1ccnc(NC(=O)[C@@H](C)c2ccccc2)c1 [Example 10, (2S)—N-(4-(5-Fluoro-2-methoxyphenyl)pyridin-2-yl)-2-phenylpropanamide]",10,68,10,–,–,–
"COc1cc(F)ccc1-c1ccnc(NC(=O)C(C)Cc2ccc(N3CCN(C)CC3)cc2)c1 (stereo not drawn) [Example 28, 2-(4-(4-Methylpiperazin-1-yl)benzyl)-N-(4-(4-fluoro-2-methoxyphenyl)-pyridin-2-yl)propanamide]",121,88,49,–,–,–
"COc1cc(F)ccc1-c1ccnc(NC(=O)[C@H]2CC[C@@H](Nc3ccncc3)CC2)c1 [Example 32, cis-N-(4-(4-Fluoro-2-methoxyphenyl)pyridin-2-yl)-4-(pyridin-4-ylamino)-cyclohexanecarboxamide]",4,34,4,–,–,–
"COc1cc(F)ccc1-c1ccnc(NC(=O)C(C)c2cccnc2)c1 (stereo not drawn) [Example 13, N-(4-(4-Fluoro-2-methoxyphenyl)pyridin-2-yl)-2-(pyridin-3-yl)propanamide]",4,66,2,–,–,–
